Source: PMC10620091 (Nature, 2023)

T1: SpSLC9C1 (Strongylocentrotus purpuratus, UniProt A3RL54)
T1 construct: gene SLC9C1; ITC and nanoDSF: isolated CTD (S946–E1193: helix E', CNBD and β-CTD); cryo-EM: full-length SpSLC9C1 in lipid nanodiscs
T1 sequence (A3RL54 946-1193): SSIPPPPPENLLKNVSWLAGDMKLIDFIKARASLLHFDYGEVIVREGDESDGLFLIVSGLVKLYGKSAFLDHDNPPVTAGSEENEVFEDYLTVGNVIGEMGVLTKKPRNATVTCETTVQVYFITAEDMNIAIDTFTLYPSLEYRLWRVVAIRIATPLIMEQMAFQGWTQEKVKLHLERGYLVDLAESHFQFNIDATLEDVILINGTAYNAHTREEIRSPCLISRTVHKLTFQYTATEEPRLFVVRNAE


What was measured:
SpSLC9C1 = molecular target: T1, SpSLC9C1; experiment: ITC (isolated CTD), nanoDSF ([…] °C shift), cryo-EM structure; assay type: binding
[1] = molecular target: the molecule itself; experiment: cryo-EM structure; ligand-free SpSLC9C1 in MSP 2N2 / soy polar lipid nanodiscs, pH 7.6, 150 mM Na+ (20 mM HEPES pH 7.6, 150 mM NaCl); C2 symmetry imposed on the final dimer map

Molecule | Kd (SpSLC9C1) [µM] | stoichiometry N [1]
Nc1nc2c(ncn2[C@@H]2O[C@@H]3COP(=O)(O)O[C@H]3[C@H]2O)c(=O)[nH]1 [cGMP] | 9.3 | 
SpSLC9C1 (sperm-specific Na+/H+ exchanger SLC9C1 from the sea urchin Strongylocentrotus purpuratus) (natural protein, UniProt A3RL54 30-1325, looked up, SpSLC9C1, Strongylocentrotus purpuratus, UniProt A3RL54, gene codon-optimized for mammalian cells; full-length protein; the first 70 N-terminal residues are not resolved in the maps; C-terminal HRV-3C cleavage site followed by Venus, myc and SBP tags; the tags were cleaved off with HRV-3C, so residues of the cleavage site may remain at the C-terminus; Homodimer by cryo-EM; also called full-length …) SSGGSGHTPTTQATHADDHDLTTHNGTEEHDDGHDDGHDDLHAHAPKVIVFISGSCLFGAISRSLFKKLPIPYTVVLLILGAILGVVASNVPLVEEHTRDVAHMDPHVLLQIFLPVLIFESAFAMDVHTFMRSFSQVCILALFGLVVASVLTAVLAMNLFNYNWNFSEAMMFGAIMSATDPVAVVALLKDLGASKQLGTIIEGESLLNDGCAIVIFNVFMKMVFFPQLTSTVGQNVLYFLQVAVAGPLWGYAVAKVTVFFLSHIFNDALVEITITLAATYLTYYIGDIWLEVSGVLAVVVLGLIVNAEKTSISPEVEVFLHRFWEMLAYLANTLIFMMVGVVVTQKALVAVDKMDWFYLIILYLAITIIRGMVISLFSPILSRIGYGLTWRNAVIMTWGGLRGAVGLALALVVENLAGNDVIGSKFLFHTAGIVVLTLVINATTIQTLLRILGMSDISIPKRLAMAGAVRRIHEGQNRTLNMLKSDRFLADADWDIATAACEISDPYSALSDDENAPADELTLGERKSVCPGCKAMVPNEPSPREFADMMEEARLRMLKAEKISYWKQFEHGMLAREALRLLVQHAEVAADEKDQFILVDDLKKSWQIKGIYPWLKRKLEDLISEKKIAAIPMPKYKLGKLMYKICHHMAFEVTINIAIVLNIVPIIMEFVVQDKMASVSTMAAPGSTVSSEPSSLQKIEDALRISNYVFFVIYAIEAIVKILGLGRHYIVSHWNKFDAFILVVALVDIIIAETLLKGSITINLSSIKVVKLFRLLRGLRMLRLTKALIPKLILVVNGKINNQLSLGYDVGKGYIIGEEEVGKIIDRMVDNKKILRELKHISETGRLQVVKELGLLQREHPGIAVSVKTRQAIRTILNHSRETIHELQGAGLLDEMEAHKLELTVEIKMKRLMNAPSSIPPPPPENLLKNVSWLAGDMKLIDFIKARASLLHFDYGEVIVREGDESDGLFLIVSGLVKLYGKSAFLDHDNPPVTAGSEENEVFEDYLTVGNVIGEMGVLTKKPRNATVTCETTVQVYFITAEDMNIAIDTFTLYPSLEYRLWRVVAIRIATPLIMEQMAFQGWTQEKVKLHLERGYLVDLAESHFQFNIDATLEDVILINGTAYNAHTREEIRSPCLISRTVHKLTFQYTATEEPRLFVVRNAEYNGPILDGRLDVDSKRSLISITEISSNMCLKHAAELRQKNSKVMLSRKSSGAAAKEEEDCIPNTSDVEQAAGVSPSVPTKTTPKPKSFLPSLGLSMSKERVNGEAVEESPVKTKQGEETPETEEGAAPRVNV |  | 2
